Data taken from patent publication US7495027B2, “3-aryl-4-hydroxyfuranone compounds and the human and animal health use thereof” (Wyeth, priority 2003, dated 2009).

Columns and labels:
[1] = system: larvae of blowfly, Lucilia sericata; test: whole plant or invertebrate; details: dose rate of 20 ppm, Lucilia sericata larvae on treated filter paper with bovine serum; for % Mortality 24 h: assessed at 24 h; for % Mortality 48 h: assessed at 48 h
Protocol: Comparative Evaluation of the Efficacy of a 3-Aryl-4-hydroxyfuranone Compound Against Blowfly Larvae
In this evaluation, filter paper discs are treated with an acetone solution of test compound and allowed to dry. Bovine serum and newly emerged larvae of blowfly, Lucilia sericata, are added to the treated filter paper. Mortality is assessed at 24 h and 48 h. When more than one evaluation is performed, the data are averaged.

[2] = system: C. elegans; test: Efficacy against nematodes (C. elegans motility rating); set-up: key: 0: no effect; 7: reduced movement in 24 h; 8: dead in 24 h; 9: dead in 4 h; details: observations at 4 h and 24 h postimmersion
Protocol: Evaluation of the Efficacy of a 3-Aryl-4-Hydroxyfuranone Against Nematodes
In this evaluation, cultures of C. elegans are maintained on E. coli lawns on Nematode Growth Agar at 20° C. New cultures are established twice a week. Nematodes for testing are rinsed from plates using M9 Buffer. […] One μL of this solution is added to each well of a 96 well plate. A mixture of C. elegans in M9 Buffer (100 μL) is added to each well, such that approximately 50 worms of mixed stages (L1, L2, L3, L4 and adults) are present in each well at a final concentration of 100 ppm, 150 ppm or […] of test compound. Concentration of test compound may be varied by gradient dilution of the stock DMSO solution. Observations are made under a dissecting microscope at 4 h and 24 h postimmersion. A rating is based on the motility of the larvae and adults, using the rating system shown below.

Row | SMILES | % Mortality 24 h [1] | % Mortality 48 h [1] | further results
1 | O=C1OC(=Cc2ccc(-c3ccccc3CO)cc2)C(O)=C1c1ccccc1CO | 0% | 0% | 
2 | O=C1O/C(=C\c2ccc(-c3cccc(CO)c3)cc2)C(O)=C1c1cccc(CO)c1 | 0% | 0% | 
3 | CC(=O)Nc1cccc(C2=C(O)/C(=C/c3ccc(-c4cccc(NC(C)=O)c4)cc3)OC2=O)c1 | 0% | 0% | 
4 | O=C1O/C(=C\c2ccc(N3CCN(c4ccccc4Cl)CC3)c(Cl)c2)C(O)=C1c1cc(Cl)cc(Cl)c1 | 0% | 0% | 
5 | CCOC(=O)N1CCN(c2ccc(/C=C3\OC(=O)C(c4cc(Cl)cc(Cl)c4)=C3O)cc2F)CC1 | 0% | 0% | 
6 | COc1cc(C=C2OC(=O)C(c3cc(Cl)cc(Cl)c3)=C2O)ccc1-c1cccc(C(F)(F)F)c1 | 0% | 0% | 
7 | N#Cc1ccc(C2=C(O)/C(=C/c3ccc(-c4ccc(C#N)cc4)cc3)OC2=O)cc1 | 0% | 0% | 
8 | CC(C)(C)c1ccc(-c2ccc(C3=C(O)C(=Cc4ccc(-c5ccccc5)cc4)OC3=O)cc2)cc1 | 0% | 0% | 
9 | C=CCOC1=C(c2ccc(Cl)cc2)C(=O)OC1=Cc1ccc(C#N)cc1 (mixture of isomers) | 0% | 0% | 
10 | N#Cc1ccc(-c2ccc(C=C3OC(=O)C(c4cccc(C(F)(F)F)c4)=C3O)cc2)cc1 (mixture of isomers) | 0% | 0% | 
11 | O=C1OC(=Cc2ccc(-c3ccc(Cl)cc3)cc2)C(O)=C1c1cccc(C(F)(F)F)c1 (mixture of isomers) | 0% | 0% | 
12 | N#Cc1cccc(C2=C(O)C(=Cc3ccc(-c4ccc(Cl)cc4)cc3)OC2=O)c1 (mixture of isomers) | 0% | 0% | 
13 | N#Cc1ccc(-c2ccc(C=C3OC(=O)C(c4cccc(Cl)c4)=C3O)cc2)cc1 (mixture of isomers) | 0% | 0% | 
14 | O=C1OC(=Cc2ccc(-c3ccc(Cl)cc3)cc2)C(O)=C1c1cccc(Cl)c1 (mixture of isomers) | 0% | 0% | 
15 | N#Cc1ccc(-c2ccc(C=C3OC(=O)C(c4ccc(C(F)(F)F)cc4)=C3O)cc2)cc1 (mixture of isomers) | 0% | 0% | 
16 | O=C1OC(=Cc2ccc(-c3ccc(Cl)cc3)cc2)C(O)=C1c1ccc(C(F)(F)F)cc1 (mixture of isomers) | 0% | 65% | 
17 | N#Cc1ccc(C2=C(O)C(=Cc3ccc(-c4ccc(C(F)(F)F)cc4)cc3)OC2=O)cc1 (mixture of isomers) | 0% | 25% | 
18 | N#Cc1ccc(C2=C(O)C(=Cc3ccc(-c4ccc(Cl)cc4)cc3)OC2=O)cc1 (mixture of isomers) | 0% | 100% | 
19 | O=C1OC(=Cc2ccc(-c3ccc(C(F)(F)F)cc3)cc2)C(O)=C1c1ccc(Cl)cc1 (mixture of isomers) | 0% | 0% | 
20 | N#Cc1ccc(-c2ccc(C=C3OC(=O)C(c4ccc(F)cc4)=C3O)cc2)cc1 (mixture of isomers) | 0% | 0% | 
21 | O=C1OC(=Cc2ccc(-c3ccc(Cl)cc3)cc2)C(O)=C1c1ccc(F)cc1 (mixture of isomers) | 0% | 0% | 
22 | O=C1OC(=Cc2ccc(C(F)(F)F)cc2)C(O)=C1c1ccc(-c2ccc(Cl)cc2)cc1 (mixture of isomers) | 0% | 0% | 
23 | N#Cc1ccc(C=C2OC(=O)C(c3ccc(-c4ccc(Cl)cc4)cc3)=C2O)cc1 (mixture of isomers) | 0% | 0% | 
24 | O=C1OC(=Cc2ccc(Cl)cc2)C(O)=C1c1ccc(-c2ccc(Cl)cc2)cc1 (mixture of isomers) | 0% | 0% | 
25 | COC1=C(c2ccc(Cl)cc2)C(=O)OC1=Cc1ccc(C#N)cc1 (mixture of isomers) [R=CH3, R1=4-Cl—C6H4**, R2=4-CN—C6H4] | 0% | 0% | 
26 | O=C1OC(=Cc2ccc(C(F)(F)F)cc2)C(O)=C1c1cccc(C(F)(F)F)c1 (mixture of isomers) [R=H, R1=3-CF3—C6H4**, R2=4-CF3—C6H4] | 100% | 100% | 

Row | SMILES | % Mortality 24 h [1] | % Mortality 48 h [1] | further results
27 | N#Cc1ccc(C=C2OC(=O)C(c3cccc(C(F)(F)F)c3)=C2O)cc1 (mixture of isomers) [R=H, R1=3-CF3—C6H4**, R2=4-CN—C6H4] | 20% | 20% | 
28 | O=C1OC(=Cc2ccc(F)cc2)C(O)=C1c1cccc(C(F)(F)F)c1 (mixture of isomers) [R=H, R1=3-CF3—C6H4**, R2=4-F—C6H4] | 100% | 100% | 
29 | N#Cc1cccc(C2=C(O)C(=Cc3ccc(C(F)(F)F)cc3)OC2=O)c1 (mixture of isomers) [R=H, R1=3-CN—C6H4**, R2=4-CF3—C6H4] | 0% | 0% | 
30 | N#Cc1ccc(C=C2OC(=O)C(c3cccc(C#N)c3)=C2O)cc1 (mixture of isomers) [R=H, R1=3-CN—C6H4**, R2=4-CN—C6H4] | 0% | 0% | 
31 | N#Cc1cccc(C2=C(O)C(=Cc3ccc(Cl)cc3)OC2=O)c1 (mixture of isomers) [R=H, R1=3-CN—C6H4**, R2=4-Cl—C6H4] | 0% | 0% | 
32 | N#Cc1cccc(C2=C(O)C(=Cc3ccc(F)cc3)OC2=O)c1 (mixture of isomers) [R=H, R1=3-CN—C6H4**, R2=4-F—C6H4] | 0% | 0% | 
33 | O=C1OC(=Cc2ccc(C(F)(F)F)cc2)C(O)=C1c1cccc(Cl)c1 (mixture of isomers) [R=H, R1=3-Cl—C6H4**, R2=4-CF3—C6H4] | 60% | 75% | 
34 | N#Cc1ccc(C=C2OC(=O)C(c3cccc(Cl)c3)=C2O)cc1 (mixture of isomers) [R=H, R1=3-Cl—C6H4**, R2=4-CN—C6H4] | 0% | 0% | 
35 | O=C1OC(=Cc2ccc(Cl)cc2)C(O)=C1c1cccc(Cl)c1 (mixture of isomers) [R=H, R1=3-Cl—C6H4**, R2=4-Cl—C6H4] | 0% | 0% | 
36 | O=C1OC(=Cc2ccc(F)cc2)C(O)=C1c1cccc(Cl)c1 (mixture of isomers) [R=H, R1=3-Cl—C6H4**, R2=4-F—C6H4] | 0% | 0% | 
37 | O=C1OC(=Cc2ccc(C(F)(F)F)cc2)C(O)=C1c1ccc(C(F)(F)F)cc1 (mixture of isomers) [R=H, R1=4-CF3—C6H4**, R2=4-CF3—C6H4] | 100% | 100% | 
38 | O=C1O/C(=C\c2cccc(C(F)(F)F)c2)C(O)=C1c1ccc(Cl)cc1 [R=H; R1=4-Cl—C6H4; R2=3-CF3—C6H4] |  |  | Rating ([2]; dose 150 ppm): 9
39 | O=C1OC(=Cc2ccccc2C(F)(F)F)C(O)=C1c1ccc(F)cc1 [R=H; R1=4-F—C6H4; R2=2-CF3—C6H4] |  |  | Rating ([2]; dose 150 ppm): 0
40 | COc1ccc(C2=C(O)/C(=C/c3ccc4ccccc4c3)OC2=O)cc1 [R=H; R1=4-OCH3—C6H4; R2=2-naphthyl] |  |  | Rating ([2]; dose 150 ppm): 0
41 | COc1ccc(C2=C(O)/C(=C/c3ccc(Cl)cc3)OC2=O)cc1 [R=H; R1=4-OCH3—C6H4; R2=4-Cl—C6H4] |  |  | Rating ([2]; dose 150 ppm): 0
42 | COc1ccc(/C=C2\OC(=O)C(c3ccc(OC)cc3)=C2O)cc1 [R=H; R1=4-OCH3—C6H4; R2=4-OCH3—C6H4] |  |  | Rating ([2]; dose 150 ppm): 0
43 | O=C1OC(=Cc2cc(C(F)(F)F)ccc2Cl)C(O)=C1c1ccc(-c2ccccc2)cc1 [R=H; R1=4-biphenyl; R2=2-Cl-5-CF3—C6H3] |  |  | Rating ([2]; dose 200 μM): 9
44 | O=C1O/C(=C\c2ccc3ccccc3c2)C(O)=C1c1ccc(-c2ccccc2)cc1 [R=H; R1=4-biphenyl; R2=2-naphthyl] |  |  | Rating ([2]; dose 150 ppm): 0
45 | O=C1OC(=Cc2cccc(C(F)(F)F)c2)C(O)=C1c1ccc(-c2ccccc2)cc1 [R=H; R1=4-biphenyl; R2=3-CF3—C6H4] |  |  | Rating ([2]; dose 200 μM): 9
46 | O=C1OC(=Cc2cc(F)cc(C(F)(F)F)c2)C(O)=C1c1ccc(-c2ccccc2)cc1 [R=H; R1=4-biphenyl; R2=3-F-5-CF3—C6H3] |  |  | Rating ([2]; dose 200 μM): 9
47 | O=C1O/C(=C\c2ccc(-c3ccccc3)cc2)C(O)=C1c1ccc(-c2ccccc2)cc1 [R=H; R1=4-biphenyl; R2=4-biphenyl] |  |  | Rating ([2]; dose 150 ppm): 9
48 | O=C1O/C(=C\c2cccc(C(F)(F)F)c2)C(O)=C1c1ccccc1 [R=H; R1=C6H5; R2=3-CF3—C6H4] |  |  | Rating ([2]; dose 150 ppm): 0
49 | O=C1OC(=Cc2ccc(C(F)(F)F)cc2)C(O)=C1c1cccs1 [R=H; R1=thiophen-2-yl; R2=4-CF3—C6H4] |  |  | Rating ([2]; dose 100 ppm): 7
50 | N#Cc1ccc(C=C2OC(=O)C(c3cccs3)=C2O)cc1 [R=H; R1=thiophen-2-yl; R2=4-CN—C6H4] |  |  | Rating ([2]; dose 100 ppm): 0
51 | O=C1O/C(=C\c2ccc(Cl)cc2)C(O)=C1c1cccs1 [R=H; R1=thiophen-2-yl; R2=4-Cl—C6H4] |  |  | Rating ([2]; dose 100 ppm): 7
